{"source": "patent US20230118517A1", "about": "“METHODS OF TREATING MULTIPLE MYELOMA” (Seagen Inc., priority 2020, published 2023)", "key": {"[1]": {"system": "NCI-H929 cells", "experiment": "BCMA expression by flow cytometry after GSI incubation, NCI-H929", "assay_type": "cell-based", "conditions": "NCI-H929, 1 μM DAPT for 24 hrs vs untreated"}, "[2]": {"system": "Molp-8 cells", "experiment": "BCMA expression by flow cytometry after GSI incubation, Molp-8", "assay_type": "cell-based"}, "[3]": {"system": "FcγRIII", "experiment": "FcγRIII signaling ADCC reporter bioassay, Molp-8 target cells", "assay_type": "cell-based", "conditions": "Molp-8 bound with antibody dose titrations, +/- DAPT, CD16A-Jurkat effector cells 6:1", "protocol": "(§1) NCI-H929 or Molp-8 MM target cells were incubated with and without 1 μM DAPT for 24 hrs. […] FcγRIII signaling was determined using a surrogate assay as manufacturer describes (Promega ADCC reporter bioassay cat #G9302). Cells were bound with antibody dose titrations+/−GSI for 30 minutes at 37° C. CD16A-Jurkat effector cells were then added with a 6:1 effector-to-target cell ratio. After an overnight incubation, the assay was developed with Bio-Glo and relative luminescence units (RLU) were measured on an Envision plate reader. […] Enhanced signaling is the first step in the primary mechanism of action of SEA-BCMA. This signaling can translate to increased anti-MM cell lysis through ADCC."}, "[4]": {"system": "FcγRIII", "experiment": "FcγRIII signaling ADCC reporter bioassay, NCI-H929 target cells", "assay_type": "cell-based", "conditions": "NCI-H929 bound with antibody dose titrations, +/- DAPT, CD16A-Jurkat effector cells 6:1", "protocol": "as §1"}, "[5]": {"system": "U266", "experiment": "BCMA expression by flow cytometry after Nirogacestat, U266", "assay_type": "cell-based", "conditions": "U266, after incubation with Nirogacestat (FIG. 9A)"}, "[6]": {"system": "NF-κB p65", "experiment": "NF-κB p65 activity ELISA on nuclear extract", "assay_type": "cell-based", "conditions": "NCI-H929, serum-starved, 0.2 μM Nirogacestat 16 hrs, +/- 1 μg/ml APRIL", "protocol": "The secondary mechanism of action of SEA-BCMA is to block BCMA proliferative cell signaling. Increased BCMA from GSI treatment is expected to induce increased BCMA signaling. Therefore, the block of this enhanced signaling by SEA-BCMA was tested. BCMA-expressing NCI-H929 cells were serum-starved with and without 0.2 μM Nirogacestat (purchased from SelleckChem) for 16 hrs. Cells were then bound with and without 20 μg/mL SEA-BCMA and incubated with and without 1 μg/ml recombinant human APRIL (R&D Systems) for 20 minutes at 37° C. in the presence or absence of 0.2 μM Nirogacestat. 1 μg of nuclear extract was assayed in duplicate for NF-κB p65 activity by ELISA (TransAM NFκB Chemi p65, Active Motif)."}, "[7]": {"system": "MM1R myeloma target cells", "experiment": "PBMC-mediated MM1R target cell killing, second experiment (PBMC pretreated 5 days, 0.5 μM pomalidomide)", "assay_type": "cell-based", "conditions": "PBMC:MM1R 10:1, overnight, with or without 0.5 μM pomalidomide", "protocol": "(§2) Experiments were performed to test whether SEA-BCMA combines effectively with pomalidomide in vitro by combining PBMC effector cells with MM1R target cells treated with both pomalidomide and SEA-BCMA or antibody controls. The first experiment (FIG. 12A) benchmarks against MM standard of care elotuzumab and nonfucosylated parent BCMA antibody. The second experiment (FIG. 12B) benchmarks against MM standard of care daratumumab. MM1R target cells express 15,000 copies of BCMA, 12,000 copies of CS1 (elotuzumab target), and 36,000 copies of CD38 (daratumumab target).\nIn the second experiment (FIG. 12B), normal donor PBMCs of the FcγRIII V/F genotype were treated with or without 0.5 μM pomalidomide (APEx Bio, cat #A4211) for 5 days. The resulting PBMCs were then washed and mixed with CFSE (Invitrogen cat #V12883) labeled MM1R myeloma target cells at an effector-to-target cell ratio of 10:1. The mixture was then treated with a dose range of the following antibodies: SEA-BCMA, daratumumab, or non-binding hIgG1k antibody control (Sigma cat #15154) with or without 0.5 μM pomalidomide (APEx Bio, cat #A4211) and incubated overnight. Percentage live MM1R cells were then determined using the viability dye 7-AAD (BD Biosciences, cat #559925) by flow cytometry."}, "[8]": {"system": "MM1R myeloma target cells", "experiment": "PBMC-mediated MM1R target cell killing, first experiment (48 hrs, 3 μM pomalidomide)", "assay_type": "cell-based", "conditions": "PBMC:MM1R 10:1, 48 hrs, with or without 3 μM pomalidomide", "protocol": "as §2\nIn the first experiment (FIG. 12A), normal donor PBMCs of the FcγRIII V/F genotype were mixed with CFSE (Invitrogen cat #V12883) labeled MM1R myeloma target cells at an effector-to-target cell ratio of 10:1. The mixture was treated with a dose range of the following antibodies: SEA-BCMA, elotuzumab, WT-BCMA (fucosylated parent Ab), or non-binding hIgG1k antibody control (Sigma cat #15154) with or without 3 μM pomalidomide (APEx Bio, cat #A4211). After 48 hrs, the % live MM1R cells were then determined using the viability dye 7-AAD (BD Biosciences, cat #559925) by flow cytometry."}, "[9]": {"molecular_target": "T1, human BCMA (B-cell maturation antigen) (human, UniProt Q02223 1-184)", "T1 construct": "Endogenous BCMA on MM1R and NCI-H929 cell lines and on patients' multiple myeloma cells; also called membrane BCMA; cell-surface BCMA", "T1 sequence": "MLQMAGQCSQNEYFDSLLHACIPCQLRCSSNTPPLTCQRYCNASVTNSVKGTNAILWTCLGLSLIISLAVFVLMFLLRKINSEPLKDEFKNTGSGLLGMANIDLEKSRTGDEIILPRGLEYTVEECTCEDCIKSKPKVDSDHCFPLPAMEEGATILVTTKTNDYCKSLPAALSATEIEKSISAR", "experiment": "in vitro cell binding capacity assay, flow cytometry on MM1R cells"}, "[10]": {"molecular_target": "T1, human BCMA (B-cell maturation antigen)", "experiment": "flow cytometry on MM cells from bone marrow aspirates"}}}
{"molecule": "C[C@H](NC(=O)Cc1cc(F)cc(F)c1)C(=O)N[C@H](C(=O)OC(C)(C)C)c1ccccc1", "note": "[DAPT]", "values": [{"measurement": "BCMA expression", "setting": "[1]", "value": "increased BCMA expression"}, {"measurement": "BCMA expression", "setting": "[2]; Molp-8, 1 μM DAPT for 24 hrs vs untreated", "value": "increased BCMA expression"}, {"measurement": "FcγRIII signaling", "setting": "[3]", "value": "increased FcγRIII signaling"}, {"measurement": "FcγRIII signaling", "setting": "[4]", "value": "increased FcγRIII signaling"}]}
{"molecule": "CCC[C@H](N[C@H]1CCc2cc(F)cc(F)c2C1)C(=O)Nc1cn(C(C)(C)CNCC(C)(C)C)cn1", "note": "[Nirogacestat]", "values": [{"measurement": "BCMA expression", "setting": "[5]", "value": "increased BCMA expression"}, {"measurement": "BCMA expression", "setting": "[2]; Molp-8, Nirogacestat treated vs untreated (FIG. 9A legend)", "value": "increased BCMA expression"}, {"measurement": "NF-κB signaling (p65 activity, RLU)", "setting": "[6]", "value": "increased NF-κB signaling"}]}
{"molecule": "Daratumumab: anti-CD38 antibody, MM standard of care [reference compound]", "values": [{"measurement": "MM1R target cell killing (percentage live MM1R cells)", "setting": "[7]", "value": "less activity than SEA-BCMA"}]}
{"molecule": "Elotuzumab: MM standard of care antibody; target CS1 [reference compound]", "values": [{"measurement": "MM1R target cell killing (% live MM1R cells)", "setting": "[8]", "value": "no impact on cells unless pomalidomide was added"}]}
{"molecule": "SEA-BCMA (antibody, human IgG1, kappa, V domains shown, also called non-fucosylated monoclonal anti-BCMA antibody) VH: QVQLVQSGAEVKKPGASVKLSCKASGYTFTDYYIHWVRQAPGQGLEWIGYINPNSGYTNYAQKFQGRATMTADKSINTAYVELSRLRSDDTAVYFCTRYMWERVTGFFDFWGQGTMVTVSS VL: DIQMTQSPSSVSASVGDRVTITCLASEDISDDLAWYQQKPGKAPKVLVYTTSSLQSGVPSRFSGSGSGTDFTLTISSLQPEDFATYFCQQTYKFPPTFGGGTKVEIKR", "values": [{"measurement": "binding result", "setting": "[9]", "value": "binds"}]}
{"molecule": "APRIL (a proliferation-inducing ligand) (ligand, human, UniProt O75888 105-250, looked up) AVLTQKQKKQHSVLHLVPINATSKDDSDVTEVMWQPALRRGRGLQAQGYGVRIQDAGVYLLYSQVLFQDVTFTMGQVVSREGQGRQETLFRCIRSMPSHPDRAYNSCYSAGVFHLHQGDILSVIIPRARAKLNLSPHGTFLGFVKL", "values": [{"measurement": "binding result", "setting": "[10]", "value": "binds"}]}
